Test results from publication PMC4503954, “The mitochondrial malate dehydrogenase 1 gene GhmMDH1 is involved in plant and root growth under phosphorus deficiency conditions in cotton” (Scientific Reports, 2015).

Target: T1, GhmMDH1 (Gossypium hirsutum, UniProt A0A1U8J4P3)
T1 construct: gene LOC107903665; N-terminus […]; (27-residue mitochondrial target signal)
Test: NADH/NAD+ absorbance at […] nm, nonlinear regression
Type: biochemical
Conditions: 50 mM MOPS pH 7.5, 25 °C

T1 sequence (A0A1U8J4P3 entry or part of it): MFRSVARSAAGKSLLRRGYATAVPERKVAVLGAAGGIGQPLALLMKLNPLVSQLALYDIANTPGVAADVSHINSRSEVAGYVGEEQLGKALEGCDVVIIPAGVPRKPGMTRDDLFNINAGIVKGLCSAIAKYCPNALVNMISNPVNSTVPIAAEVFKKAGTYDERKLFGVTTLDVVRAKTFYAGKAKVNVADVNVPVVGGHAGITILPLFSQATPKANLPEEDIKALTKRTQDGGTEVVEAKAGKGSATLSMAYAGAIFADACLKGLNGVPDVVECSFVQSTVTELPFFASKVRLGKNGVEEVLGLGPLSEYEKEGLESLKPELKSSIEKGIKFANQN

O=C(O)C[C@H](O)C(=O)O [Malate]
Km (1.0 mM NAD+): 2910 ± 290 µM

NC(=O)C1=CN([C@@H]2O[C@H](COP(=O)(O)OP(=O)(O)OC[C@H]3O[C@@H](n4cnc5c(N)ncnc54)[C@H](O)[C@@H]3O)[C@@H](O)[C@H]2O)C=CC1 [NADH]
Km (0.5 mM OAA): 107 ± 19 µM

NC(=O)c1ccc[n+]([C@@H]2O[C@H](COP(=O)(O)OP(=O)(O)OC[C@H]3O[C@@H](n4cnc5c(N)ncnc54)[C@H](O)[C@@H]3O)[C@@H](O)[C@H]2O)c1 [NAD^+]
Km (50 mM L-malate): 766 ± 84 µM

O=C(O)CC(=O)C(=O)O [OAA]
Km (0.2 mM NADH): 132 ± 25 µM
